Results taken from patent US20250043299A1, “POINT MUTATIONS THAT BOOST AROMATIC AMINO ACID PRODUCTION AND CO2 ASSIMILATION IN PLANTS” (Wisconsin Alumni Research Foundation, priority 2021, published 2025).
pIC50: −log10 of the molar value. Read-outs that look alike come from different tables or passages of the source.

How the values were obtained:
DHS1^WT [1] = biological target: T1, DHS1^WT (Arabidopsis thaliana, UniProt P29976); assay: DHS enzyme assay (colorimetric), recombinant DHS1^WT; format: biochemical; settings: for effect on DHS1 activity (effector screening): FIG. 2D
T1 construct: without the predicted plastid transit peptide (amino acid residues; 49-525, 34-507, and 52-527, respectively); made in house; host or cells: E. coli Rosetta-2
Protocol: (§1) To generate recombinant DHS proteins the pET28a vectors carrying the A. thaliana DHS1 (AtDHS1), AtDHS2, or AtDHS3 WT sequence without the predicted plastid transit peptide (amino acid residues; 49-525, 34-507, and 52-527, respectively) were expressed in E. coli Rosetta-2 cells and purified using Ni-affinity chromatography, exactly as was conducted previously (9). To generate DHS proteins with individual sota mutations via site-directed mutagenesis, these pET28a plasmid templates were diluted by 500-fold, mixed with 0.04 U/μL Phusion DNA polymerase (Thermo Scientific), 0.2 mM deoxynucleoside triphosphates (dNTPs), 1× Phusion reaction buffer (Thermo Scientific), and 0.5 μM forward and reverse mutagenesis primers (Table 10). The PCR reaction was run using the following protocol: 98° C. for 30 s followed by 20 cycles of 10 s at 98° C., 20 s at 70° C., 4.5 min at 72° C. with a final extension at 72° C. for 10 min. The PCR products were purified using a QIAquick Gel Extraction Kit (QIAGEN), treated with FastDigest DpnI (Thermo Scientific) to digest methylated plasmid template DNA for 20 min at 37° C., and transformed into E. coli cells. The mutagenized pET28a plasmids were sequenced to confirm that no errors were introduced during the mutagenesis process.
(§2) The DHS enzyme assays were conducted using the colorimetric method that we recently described (9). Briefly, the enzyme solution (7.7 μl) containing 50 mM Hepes (pH 7.4) was preincubated with an effector molecule(s) at room temperature for 15 min. For assays using recombinant protein and enzyme fractions isolated from plant leaves, 0.01 to 0.1 μg and approximately 50 μg of proteins were used, respectively. After adding 0.5 μl of 0.1 M dithiothreitol, the samples were further incubated at room temperature for 15 min. During these incubations, the substrate solution containing 50 mM Hepes (pH 7.4), 2 mM MnCl2, 4 mM E4P, and 4 mM PEP at final concentration was preheated at 37° C. The enzyme reaction was started by adding 6.8 μl of the substrate solution, then incubated at 37° C. for 30 min, and terminated by adding 30 μl of 0.6 M trichloroacetic acid. After a brief centrifugation, 5 μl of 200 mM NaIO4 (sodium meta-periodate) in 9 N H3PO4 was added to oxidize the enzymatic product and to incubate at 25° C. for 20 min. To stop the oxidation reaction, 20 μl of 0.75 M NaAsO2 (sodium arsenite), which was dissolved in 0.5 M Na2SO4 and 0.05 M H2SO4, was added and immediately mixed. After 5 min of incubation at room temperature, one-third of the sample solution was transferred to a new tube to be mixed with 50 μl of 40 mM thiobarbituric acid and incubated at 99° C. for 15 min in a thermal cycler. The mixture was added to 600 μl of cyclohexanone in eight-strip solvent-resistant plastic tubes, mixed vigorously, and centrifuged at 4500 g for 3 min to separate water- and cyclohexanone-based layers for the extraction off the developed pink chromophore. The absorbance of the pink supernatant was read at 549 nm with the microplate reader (Infinite 200 PRO, TECAN) to calculate DAHP production with the molar extinction coefficient at 549 nm (ε=549 nm) of 4.5×10^4 M^−1 cm^−1. Reaction mixtures with boiled enzymes were run in parallel and used as negative controls to estimate the background signal.

DHS1^B4 = biological target: T2, DHS1^B4 (Arabidopsis thaliana, UniProt P29976, G244R); assay: DHS enzyme assay, recombinant DHS1^B4; format: biochemical
T2 construct: without the predicted plastid transit peptide (amino acid residues; 49-525, 34-507, and 52-527, respectively); made in house; host or cells: E. coli
Protocol: as §1, §2

[2] = biological target: T3, Arabidopsis thaliana DHS2 (SEQ ID NO:2) variant DHS2^A4 (sotaA4), G222S (Arabidopsis thaliana, UniProt Q00218, G222S); assay: biochemical; format: biochemical; settings: up to 1 mM Tyr, Trp (FIG. 2C); shikimate, arogenate, prephenate at 1 mM (FIG. 21A)
T3 construct: without the predicted plastid transit peptide (amino acid residues; 49-525, 34-507, and 52-527, respectively); made in house; host or cells: E. coli
Protocol: as §1, §2

[3] = biological target: T4, Arabidopsis thaliana DHS2 (AtDHS2), wild type (DHS2^WT), SEQ ID NO:2 (Arabidopsis thaliana, UniProt Q00218); settings: reference 9; cited from earlier work
T4 construct: without the predicted plastid transit peptide (amino acid residues; 49-525, 34-507, and 52-527, respectively); made in house; host or cells: E. coli Rosetta-2

DHS2^A4 [4] = biological target: T5, DHS2^A4 (Arabidopsis thaliana, UniProt Q00218, G222S); format: biochemical; settings: effector up to 1 mM
T5 construct: without the predicted plastid transit peptide (amino acid residues; 49-525, 34-507, and 52-527, respectively); made in house; host or cells: E. coli
Protocol: as §1, §2

[5] = biological target: T6, Arabidopsis thaliana DHS1 (AtDHS1), wild type (DHS1^WT), SEQ ID NO:1 (Arabidopsis thaliana, UniProt P29976); assay: DHS enzyme assay with effector, Arabidopsis DHS1 WT; format: biochemical; settings: effector screening (FIG. 2D)
T6 construct: without the predicted plastid transit peptide (amino acid residues; 49-525, 34-507, and 52-527, respectively); made in house; host or cells: E. coli Rosetta-2
Protocol: as §1, with “To” for “To generate recombinant DHS proteins the pET28a vectors carrying the A. thaliana DHS1 (AtDHS1), AtDHS2, or AtDHS3 WT sequence without the predicted plastid transit peptide (amino acid residues; 49-525, 34-507, and 52-527, respectively) were expressed in E. coli Rosetta-2 cells and purified using Ni-affinity chromatography, exactly as was conducted previously (9). To”
(§3) The DHS enzyme assays were conducted using the colorimetric method that we recently described (9). Briefly, the enzyme solution (7.7 μl) containing 50 mM Hepes (pH 7.4) was preincubated with an effector molecule(s) at room temperature for 15 min. For assays using recombinant protein and enzyme fractions isolated from plant leaves, 0.01 to 0.1 μg and approximately 50 μg of proteins were used, respectively. After adding 0.5 μl of 0.1 M dithiothreitol, the samples were further incubated at room temperature for 15 min. During these incubations, the substrate solution containing 50 mM Hepes (pH 7.4), 2 mM MnCl2, 4 mM E4P, and 4 mM PEP at final concentration was preheated at 37° C. The enzyme reaction was started by adding 6.8 μl of the substrate solution, then incubated at 37° C. for 30 min, and terminated by adding 30 μl of 0.6 M trichloroacetic acid. After a brief centrifugation, 5 μl of 200 mM NaIO4 (sodium meta-periodate) in 9 N H3PO4 was added to oxidize the enzymatic product and to incubate at 25° C. for 20 min. To stop the oxidation reaction, 20 μl of 0.75 M NaAsO2 (sodium arsenite), which was dissolved in 0.5 M Na2SO4 and 0.05 M H2SO4, was added and immediately mixed. […]

DHS2^WT [6] = biological target: T7, DHS2^WT (Arabidopsis thaliana, UniProt Q00218); assay: DHS enzyme assay, recombinant DHS2^WT; format: biochemical; settings: for effect on DHS2 activity (effector screening): FIG. 2D; for inhibition at 1000 µM: effector at 1 mM
T7 construct: without the predicted plastid transit peptide (amino acid residues; 49-525, 34-507, and 52-527, respectively); made in house; host or cells: E. coli Rosetta-2
Protocol: as §1, §2

DHS3^H1 = assay: DHS enzyme assay, recombinant DHS3^H1; format: biochemical, Arabidopsis thaliana
Protocol: as §1, with “To” for “To generate recombinant DHS proteins the pET28a vectors carrying the A. thaliana DHS1 (AtDHS1), AtDHS2, or AtDHS3 WT sequence without the predicted plastid transit peptide (amino acid residues; 49-525, 34-507, and 52-527, respectively) were expressed in E. coli Rosetta-2 cells and purified using Ni-affinity chromatography, exactly as was conducted previously (9). To”
as §3

DHS2^A11 = biological target: T8, DHS2^A11 (Arabidopsis thaliana, UniProt Q00218, A224T); assay: DHS enzyme assay, recombinant DHS2^A11; format: biochemical; settings: effector up to 1 mM
T8 construct: without the predicted plastid transit peptide (amino acid residues; 49-525, 34-507, and 52-527, respectively); made in house; host or cells: E. coli
Protocol: as §1, §2

DHS2^F1 = biological target: T9, DHS2^F1 (Arabidopsis thaliana, UniProt Q00218, L136F); assay: DHS enzyme assay, recombinant DHS2^F1; format: biochemical; settings: effector up to 1 mM
T9 construct: without the predicted plastid transit peptide (amino acid residues; 49-525, 34-507, and 52-527, respectively); made in house; host or cells: E. coli
Protocol: as §1, §2

DHS3^G1 = assay: DHS enzyme assay, recombinant DHS3^G1; format: biochemical, Arabidopsis thaliana
Protocol: as §1, with “To” for “To generate recombinant DHS proteins the pET28a vectors carrying the A. thaliana DHS1 (AtDHS1), AtDHS2, or AtDHS3 WT sequence without the predicted plastid transit peptide (amino acid residues; 49-525, 34-507, and 52-527, respectively) were expressed in E. coli Rosetta-2 cells and purified using Ni-affinity chromatography, exactly as was conducted previously (9). To”
as §3

[7] = biological target: T3, Arabidopsis thaliana DHS2 (SEQ ID NO:2) variant DHS2^A4 (sotaA4), G222S; assay: Differential scanning fluorimetry protein-ligand affinity analysis, DHS2 sotaA4; format: binding; settings: ligand at 1 mM
Protocol: (A) Simplified pathway map of AAAs and AAA-derived metabolites used in the effector screening. […] Data are means±SEM (n=3 independent assays).
(§4) To examine the impact of the sota mutations on the interaction between DHS and AAA effectors (FIG. 22), a differential scanning fluorimetry (DSF) analysis (48) was conducted using the recombinant DHS2^WT and DHS2^A4 proteins. […] The fluorescence signal was monitored during the stepwise increase in temperature (1° C. per minute from 25° C. to 95° C.). The Tm was calculated by nonlinear regression analysis using the Boltzmann sigmoidal equation (48).

DHS3^WT = settings: AAAs: from Yokoyama et al., Plant Cell, 2021; cited from earlier work
DHS1^WT [8] = biological target: T1, DHS1^WT; settings: AAAs, chorismate, caffeate: from Yokoyama et al., Plant Cell, 2021, cited from earlier work
DHS2^A4 [9] = biological target: T5, DHS2^A4; assay: Differential scanning fluorimetry (DSF) protein-ligand affinity analysis, DHS2^A4; format: binding; settings: ligand at 1 mM
Protocol: as §4

DHS2^WT [10] = biological target: T7, DHS2^WT; assay: Differential scanning fluorimetry (DSF) protein-ligand affinity analysis, DHS2^WT; format: binding; settings: ligand at 1 mM
Protocol: as §4

[11] = biological target: T10, Arabidopsis thaliana DHS1 (SEQ ID NO:1) variant DHS1^B4 (sotaB4), G244R (Arabidopsis thaliana, UniProt P29976, G244R); assay: DHS enzyme assay with effector, DHS1 sotaB4; format: biochemical
T10 construct: without the predicted plastid transit peptide (amino acid residues; 49-525, 34-507, and 52-527, respectively); made in house; host or cells: E. coli
Protocol: as §1, §2

T2 sequence (P29976 49-525 G244R): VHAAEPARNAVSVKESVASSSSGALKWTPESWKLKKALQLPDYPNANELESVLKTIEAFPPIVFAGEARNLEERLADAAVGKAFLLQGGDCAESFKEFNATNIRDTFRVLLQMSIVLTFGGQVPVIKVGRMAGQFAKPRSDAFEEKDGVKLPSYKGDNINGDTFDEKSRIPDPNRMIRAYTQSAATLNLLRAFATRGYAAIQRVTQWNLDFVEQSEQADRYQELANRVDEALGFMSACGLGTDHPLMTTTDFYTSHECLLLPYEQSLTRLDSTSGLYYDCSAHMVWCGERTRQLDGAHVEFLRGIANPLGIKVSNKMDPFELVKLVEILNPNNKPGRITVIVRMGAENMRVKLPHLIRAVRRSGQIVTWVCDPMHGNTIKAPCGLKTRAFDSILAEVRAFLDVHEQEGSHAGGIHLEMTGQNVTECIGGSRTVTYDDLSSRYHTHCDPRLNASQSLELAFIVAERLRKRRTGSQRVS
T4 sequence (Q00218 34-507): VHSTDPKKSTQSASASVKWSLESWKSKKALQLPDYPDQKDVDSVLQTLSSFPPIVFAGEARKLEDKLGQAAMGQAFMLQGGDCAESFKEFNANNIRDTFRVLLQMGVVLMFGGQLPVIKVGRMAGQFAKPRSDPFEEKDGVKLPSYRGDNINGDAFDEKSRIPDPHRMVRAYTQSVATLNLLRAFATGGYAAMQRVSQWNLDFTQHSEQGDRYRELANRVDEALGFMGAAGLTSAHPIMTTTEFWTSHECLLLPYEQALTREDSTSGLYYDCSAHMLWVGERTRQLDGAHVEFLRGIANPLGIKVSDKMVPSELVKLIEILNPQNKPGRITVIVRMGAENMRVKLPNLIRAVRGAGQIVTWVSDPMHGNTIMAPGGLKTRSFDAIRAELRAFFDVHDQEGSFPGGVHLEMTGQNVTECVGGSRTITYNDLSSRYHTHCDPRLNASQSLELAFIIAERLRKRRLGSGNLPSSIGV
T7 sequence (Q00218 34-507): as above
T1 sequence (P29976 49-525): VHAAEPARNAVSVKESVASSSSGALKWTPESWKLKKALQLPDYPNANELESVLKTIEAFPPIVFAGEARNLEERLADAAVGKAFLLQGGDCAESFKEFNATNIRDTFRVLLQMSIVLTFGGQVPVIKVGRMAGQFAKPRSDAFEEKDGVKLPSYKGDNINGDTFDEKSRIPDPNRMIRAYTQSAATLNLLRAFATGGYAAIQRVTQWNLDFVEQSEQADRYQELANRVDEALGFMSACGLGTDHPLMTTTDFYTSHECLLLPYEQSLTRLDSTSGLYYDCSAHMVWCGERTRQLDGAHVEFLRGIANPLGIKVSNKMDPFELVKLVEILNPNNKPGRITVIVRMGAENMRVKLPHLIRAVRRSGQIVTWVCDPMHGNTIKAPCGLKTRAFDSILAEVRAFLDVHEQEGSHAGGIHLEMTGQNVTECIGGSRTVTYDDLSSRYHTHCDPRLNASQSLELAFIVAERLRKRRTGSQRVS
T5 sequence (Q00218 34-507 G222S): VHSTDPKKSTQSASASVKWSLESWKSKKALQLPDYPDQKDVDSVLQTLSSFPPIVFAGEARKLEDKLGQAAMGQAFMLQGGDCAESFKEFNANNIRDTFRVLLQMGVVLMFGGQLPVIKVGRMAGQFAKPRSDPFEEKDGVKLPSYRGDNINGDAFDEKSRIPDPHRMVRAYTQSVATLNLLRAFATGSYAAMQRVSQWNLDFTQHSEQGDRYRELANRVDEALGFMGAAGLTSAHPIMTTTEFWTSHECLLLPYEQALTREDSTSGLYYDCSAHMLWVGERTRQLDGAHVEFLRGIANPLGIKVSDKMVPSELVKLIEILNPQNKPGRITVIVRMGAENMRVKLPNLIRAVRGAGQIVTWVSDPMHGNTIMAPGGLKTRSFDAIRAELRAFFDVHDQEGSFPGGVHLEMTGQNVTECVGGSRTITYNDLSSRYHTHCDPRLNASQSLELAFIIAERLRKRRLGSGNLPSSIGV
T3 sequence (Q00218 34-507 G222S): as above
T6 sequence (P29976 49-525): as the sequence (P29976 49-525) above
T10 sequence (P29976 49-525 G244R): as the sequence (P29976 49-525 G244R) above
T8 sequence (Q00218 34-507 A224T): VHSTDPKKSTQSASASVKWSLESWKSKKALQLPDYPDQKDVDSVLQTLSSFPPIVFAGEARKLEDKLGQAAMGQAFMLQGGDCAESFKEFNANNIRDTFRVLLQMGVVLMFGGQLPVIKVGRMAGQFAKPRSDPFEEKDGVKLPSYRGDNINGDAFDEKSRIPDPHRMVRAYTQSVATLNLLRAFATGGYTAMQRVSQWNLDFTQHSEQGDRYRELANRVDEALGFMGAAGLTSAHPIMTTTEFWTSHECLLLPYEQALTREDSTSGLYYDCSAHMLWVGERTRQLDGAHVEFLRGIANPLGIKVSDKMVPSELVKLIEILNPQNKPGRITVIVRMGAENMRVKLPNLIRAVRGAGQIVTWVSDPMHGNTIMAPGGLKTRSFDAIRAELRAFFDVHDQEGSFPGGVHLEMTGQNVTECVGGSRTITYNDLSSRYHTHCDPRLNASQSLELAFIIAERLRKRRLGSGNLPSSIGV
T9 sequence (Q00218 34-507 L136F): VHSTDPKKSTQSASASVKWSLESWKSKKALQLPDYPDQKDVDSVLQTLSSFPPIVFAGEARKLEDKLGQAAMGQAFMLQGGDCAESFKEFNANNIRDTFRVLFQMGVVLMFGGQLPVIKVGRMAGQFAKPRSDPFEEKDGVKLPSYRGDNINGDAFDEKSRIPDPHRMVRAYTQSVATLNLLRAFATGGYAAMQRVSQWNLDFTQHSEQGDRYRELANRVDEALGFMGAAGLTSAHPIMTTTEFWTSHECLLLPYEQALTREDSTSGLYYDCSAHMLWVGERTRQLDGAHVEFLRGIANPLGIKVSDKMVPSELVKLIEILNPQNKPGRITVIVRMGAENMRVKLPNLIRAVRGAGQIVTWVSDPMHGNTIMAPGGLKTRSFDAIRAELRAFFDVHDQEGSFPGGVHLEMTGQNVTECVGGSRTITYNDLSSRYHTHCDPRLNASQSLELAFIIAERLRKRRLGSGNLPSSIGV

O=C(O)CCc1c[nH]c2ccccc12 [Indole-3-propionic acid]
pIC50 (DHS1^WT [1]): 2.69 | pIC50 (DHS1^B4): 2.70

O=C(O)C1=C[C@@H](O)[C@@H](O)[C@H](O)C1 [shikimate]
inhibition of DHS2^A4 [2]: still inhibited | inhibition of DHS2 [3]: slightly inhibit DHS2 | inhibition of DHS2^A4 activity (DHS2^A4 [4]): still inhibited

NCCc1c[nH]c2ccccc12 [tryptamine]
effect on DHS1 activity (effector screening) (DHS1^WT [1]): did not affect the activity | inhibition of DHS1^WT activity [5]: did not affect the activity of DHS1 | effect on DHS2 activity (effector screening) (DHS2^WT [6]): slight reduction

c1ccc2[nH]ccc2c1 [indole]
inhibition of DHS1^WT activity [5]: did not affect the activity of DHS1

N[C@@H](Cc1ccc(O)cc1)C(=O)O [Tyr, tyrosine]
IC50 of effector molecule on DHS3^H1 (DHS3^H1): Not inhibited | inhibition of DHS2^A11 activity (DHS2^A11): not inhibited | inhibition of DHS2^F1 activity (DHS2^F1): not inhibited | inhibition of DHS2 [3]: inhibit Arabidopsis DHS2 | IC50 of effector molecule on DHS1^B4 (DHS1^B4; recombinant enzyme): Not inhibited | IC50 of effector molecule on DHS3^G1 (DHS3^G1): Not inhibited | binding (DSF) [7]: still binds Tyr and Trp | IC50 of effector molecule on DHS3^WT (DHS3^WT): Not inhibited | IC50 of effector molecule on DHS1^WT (DHS1^WT [8]): Not inhibited

N[C@@H](Cc1ccccc1)C(=O)O [Phe, phenylalanine]
effect on melting temperature (Tm) / binding of DHS2^A4 (DHS2^A4 [9]): no impact on the Tm | effect on melting temperature (Tm) of DHS2^WT (DHS2^WT [10]): no impact on the Tm

Nc1ccccc1C(=O)[O-].[Na+] [Anthranilate]
effect on DHS1 activity (effector screening) (DHS1^WT [1]): did not affect the activity | effect on DHS2 activity (effector screening) (DHS2^WT [6]): slight reduction

O=C(O)C(=O)CC1(C(=O)O)C=CC(O)C=C1 (stereo not drawn) [prephenate]
inhibition of DHS2^A4 [2]: still inhibited | inhibition of DHS2 [3]: slightly inhibit DHS2 | inhibition of DHS2^A4 activity (DHS2^A4 [4]): still inhibited

N[C@@H](CC1(C(=O)O)C=CC(O)C=C1)C(=O)O (stereo partly drawn) [arogenate]
inhibition of DHS2^A4 [2]: still inhibited | inhibition of DHS2 [3]: slightly inhibit DHS2 | inhibition of DHS2^A4 activity (DHS2^A4 [4]): still inhibited

OCCc1ccc(O)cc1 [Tyrosol]
inhibition at 1000 µM (DHS2^WT [6]): ~30%

NCCc1ccc(O)cc1 [tyramine]
inhibition at 1000 µM (DHS2^WT [6]): ~30%

O=C(O)/C=C/c1ccc(O)c(O)c1 [Caffeate]
pIC50 [11]: 4.19 | inhibition of DHS1^B4 activity (DHS1^B4): still strongly inhibited | pIC50 (DHS1^B4; read-out: IC50 of effector molecule on DHS1^B4): 4.19 | pIC50 (DHS1^WT [8]; read-out: IC50 of effector molecule on DHS1^WT): 3.97

O=C(O)Cc1c[nH]c2ccccc12 [IAA, indole-3-acetate]
effect on DHS1 activity (effector screening) (DHS1^WT [1]): inhibit | effect on DHS2 activity (effector screening) (DHS2^WT [6]): inhibit
